Experiment: gradient 5% acetonitrile 3 min, to 50% in 2 min, to 85% in 15 min, held 3 min, 100 µL/min
Details: column: Zorbax Extend-C18 2.1 x 50 mm; eluents: water / acetonitrile, 0.1% formic acid
Outline: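 Standards, all pure, were combined into mixtures of ~100 molecules and run at 100 μL/min on a Zorbax Extend-C18 column (2.1 × 50 mm, 1.8 μm) with water and acetonitrile, each containing 0.1% formic acid. A coupled quadrupole time-of-flight mass spectrometer operated in positive and negative ionization mode. Retention time values come from computationally picked adduct peaks, each inspected manually.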

| RP-LC retention time [s] | Structure (SMILES) |
| --- | --- |
| 1070 | CCn1c(=O)c2ccccc2n(Cc2nc(-c3ccccc3C)no2)c1=O |
| 636 | CC(C)Cn1c(=O)c(N2CCN(S(=O)(=O)c3cccc(F)c3)CC2)nc2ccncc21 |
| 555 | O=C(NCCCn1nc(-c2ccncc2)ccc1=O)c1ccc2c(c1)OCO2 |
| 819 | COc1ccccc1NC(=O)Cn1nc(N2CCOCC2)c2ccccc2c1=O |
| 582 | CCOC(=O)CNC(=O)Nc1ccc2nc(N3CCOCC3)cc(C)c2c1 |
| 1050 | CCN(Cc1ccccc1)C(=O)Cn1cccc1-c1nnc(-c2ccccc2)o1 |
| 1010 | O=C(NCC1CC1)c1nnn(Cc2ccc(Cl)cc2)c1-n1cccc1 |
| 826 | COc1ccccc1NC(=O)Cn1nc2cc(C)nc(-c3cccc(F)c3)n2c1=O |
| 703 | CCn1cc(-c2ccccc2)cc1C(=O)NCc1ccccn1 |
| 710 | Cc1ccc(Cn2c(=O)n(CCNC(=O)C3CCOC3)c3ncccc32)cc1 (configuration not stated) |
| 1040 | CCc1nn2c(nnc3c(=O)n(CCc4c[nH]c5ccccc45)ccc32)c1-c1ccc(F)cc1 |
| 668 | O=C(Cn1nc2c3ccccc3ncn2c1=O)Nc1ccc(F)cc1F |
| 772 | CCN(C(=O)Cc1csc2nc(-c3ccc(OC)c(OC)c3)cn12)c1ccccc1 |
| 895 | CCN1C(=O)C(C)(C(=O)Nc2ccc(OC)c(Cl)c2)Oc2cccnc21 (configuration not stated) |
| 880 | O=C(NCc1cccs1)c1ccc2c(c1)N(C(=O)c1ccc(F)cc1)CC2 |
| 647 | CCN(Cc1ccccc1)C(=O)CN1C(=O)C2CCCCN2c2ccc(S(=O)(=O)N(C)C)cc21 (configuration not stated) |
| 1070 | Cc1cc2nn(CC(=O)Nc3ccc(F)c(Cl)c3)c(=O)n2c(Nc2ccccc2)n1 |
| 703 | CC1CCN(Cc2nc(Cn3ccn4nc(-c5ccc(F)cc5)cc4c3=O)no2)CC1 |
| 610 | O=C(CN1CCN(Cc2ccccc2F)C1=O)NC1CCN(Cc2ccccc2)CC1 |
| 680 | Cc1ccc(C)c(NC(=O)N2CCCC(Cn3c(C4CC4)nc4cccnc43)C2)c1 (configuration not stated) |
| 837 | Cc1ccc(N2CCN(C(=O)CN3CCN(Cc4ccc(F)cc4)C3=O)CC2)cc1 |
| 690 | Cc1oc(-c2ccc(C(=O)NCCN3CCOCC3)cc2)nc1CN1CCc2ccccc21 |
| 794 | CCOC(=O)c1ccc(NC(=O)Cn2c(N3CCOCC3)nc(CC)cc2=O)cc1 |
| 722 | COc1ccc2c(ccn2CCNC(=O)C2CC(=O)N(c3n[nH]c4ccccc34)C2)c1 (configuration not stated) |
| 647 | O=C(Cn1c(SCc2cccc(F)c2)nc2cccnc21)N1CCCC1 |

| RP-LC retention time [s] | Structure (SMILES) |
| --- | --- |
| 924 | Cc1noc(-c2ccc(OC3CN(C(=O)Cc4ccccc4)C3)cc2)n1 |
| 871 | CCOc1ccc(CC(=O)N2CCC3(CC2)N=C(c2ccc(C)cc2)NO3)cc1 |
| 691 | Cn1c(N2CCN(C(=O)c3cc4ccccc4[nH]3)CC2)cc(=O)n(C)c1=O |
| 730 | CC(C)N1CCn2cc(S(=O)(=O)Nc3ccccc3F)cc2C1=O |
| 686 | Cc1ccc2[nH]c(=O)c(CCC(=O)N3CCN(c4ncccn4)CC3)cc2c1 |
| 621 | CC1CCCCN1CCNC(=O)CCCn1c(=O)c2cccn2c2ccccc21 (configuration not stated) |
| 1020 | COc1ccc(Cl)cc1NC(=O)N1CCCC(C)(C(=O)NCc2ccc(F)cc2)C1 (configuration not stated) |
| 559 | O=C(CCc1ccc2nc(-c3ccccc3)[nH]c2c1)N1CCC(N2CCCCC2)CC1 |
| 713 | O=C(OCc1ccncc1)c1cn(-c2cccc(F)c2)c(=O)c2ccccc12 |
| 739 | Cc1ccc(NC(=O)Cn2cnc3nc(N4CCCC(C(=O)NC(C)C)C4)sc3c2=O)cc1F (configuration not stated) |
| 790 | COC1C(=O)N(CC2CC2)C12CCN(S(=O)(=O)c1cccc3cccnc13)CC2 (configuration not stated) |
| 690 | O=C(NCCc1c[nH]c2ccccc12)C1CCCN1c1nnc(N2CCCC2=O)s1 (configuration not stated) |
| 756 | CN1c2ccccc2C(=O)NC12CCN(C(=O)c1cccc(Cl)c1)CC2 |
| 754 | O=C(CCn1cnc2cc(-c3noc(-c4ccc(Cl)cc4)n3)ccc21)N1CCOCC1 |
| 621 | Cc1ccc(NC(=O)N2CCN(CCn3c(C(C)C)nc4cccnc43)CC2)c(C)c1 |
| 1050 | Cn1cc(C2=CCN(S(=O)(=O)c3cccc(C(F)(F)F)c3)CC2)c2cccnc21 |
| 860 | O=C(Nc1ccccc1)C(=O)c1cn(CC(=O)N2CCOCC2)c2ccccc12 |
| 972 | O=C(c1cccc(-c2nccnc2N2CCCC2)c1)N1CCN(c2ccccc2)CC1 |
| 730 | Cc1ccc2nc(N3CCN(c4ccccc4F)CC3)c(-c3noc(C)n3)cc2c1 |
| 644 | CCCn1c(CCNC(=O)c2ccccc2F)nc2cccnc21 |
| 666 | COc1ccc(CCNCC(O)Cn2c3c(c4ccccc42)CCN(C)C3=O)cc1OC (configuration not stated) |
| 578 | COc1ccc(CC(=O)N2CCN(c3cc(C)n4cnnc4n3)CC2)cc1OC |
| 784 | Cc1nn2c(CNC(=O)c3n[nH]c4c3CCCC4)c(-c3ccccc3)nc2s1 |
| 757 | O=C(C1CCN(Cc2cc3ccccc3n2Cc2ccccc2)CC1)N1CCCCC1 |
| 859 | Cc1ccc(NC(=O)Cn2nc3c(Oc4ccc(F)cc4)nccn3c2=O)cc1 |

Continued, molecule first:

| Structure (SMILES) | RP-LC retention time [s] |
| --- | --- |
| N#CCc1ccc(NC(=O)C2CCCN(S(=O)(=O)Cc3ccc(Cl)cc3)C2)cc1 (configuration not stated) | 905 |
| O=c1c2nnc3c(-c4ccc(F)cc4)cnn3c2ccn1CCc1c[nH]c2ccc(F)cc12 | 950 |
| COc1ccc(NC(=O)c2nc(C)oc2C)cc1F | 843 |
| Cc1c(CCC(=O)O)c(C)n2c(nc3ccccc32)c1C#N | 593 |
| O=C(NCCCO)C1CCCN(c2ccc(Sc3ccc(Br)cc3)nn2)C1 (configuration not stated) | 704 |
| CCc1nc(-c2ccc(-c3noc(CNC(=O)Cc4ccc(Cl)cc4)n3)cc2)cs1 | 1080 |
| CCn1cc(S(=O)(=O)N2CCC3(CC2)CN(Cc2ccc(OC)cc2)C3=O)cn1 | 729 |
| COc1ccc2c(c1)C1(CCN(S(=O)(=O)c3ccc(C#N)cc3)C1)C(=O)N2 (configuration not stated) | 797 |
| O=C(c1cc(-c2ccccc2)n[nH]1)N1C[C@H]2CNC(=O)[C@]23CCCC[C@@H]13 | 683 |
| COCCn1ccc2nc(C)c(C(=O)NCCCc3ccco3)cc2c1=O | 665 |
| CCn1cc(CN2CCCCC2c2nncn2Cc2ccccc2)cn1 (configuration not stated) | 575 |
| COCCCNC(=O)C1CCN(c2cnc3nc(C)c(C)nc3c2)CC1 | 574 |
| O=C1NCCC1Cc1ccc(C(F)(F)F)cc1 (configuration not stated) | 710 |
| O=C(NC1CCCCC1)N1CC(c2nnc(-c3ccncc3)o2)C2(CCOCC2)C1 (configuration not stated) | 621 |
| CCN(CC)C(=O)c1cnc2snc(C)c2c1N1CCC(C(=O)Nc2c(C)cc(C)cc2C)CC1 | 901 |
| O=C(NCc1cccc(F)c1)c1ccc(-c2cccs2)nc1 | 894 |
| CCOC(=O)c1c(C)c(C(=O)C(C)N(Cc2ccc(F)cc2)C(=O)CC)c(C)n1CC (configuration not stated) | 1080 |
| CC(C)NC(=O)C1CCc2sc(C(=O)N3CCCC3)cc2C1 (configuration not stated) | 696 |
| O=C(CN1CC=C(c2cnn(-c3ccccc3)c2)CC1)N1CCN(c2ccccc2)CC1 | 702 |

| Structure (SMILES) | RP-LC retention time [s] |
| --- | --- |
| CC(=O)N1C[C@@H]2CCCN3CCC[C@@H]([C@H]23)[C@H]1CCCC(=O)NCC(C)C | 577 |
| Cc1cnc(C(=O)NCC2CCCCC(=O)N2)cn1 (configuration not stated) | 593 |
| Cc1ccc(C(=O)c2cnc3cc4c(cc3c2N2CCN(C)CC2)OCO4)cc1C | 581 |
| O=C(c1cccs1)N1CCN(c2cc(Cl)ccc2Cl)CC1 | 1020 |
| O=S(=O)(c1cc(-c2nnc(C3CC3)o2)co1)N1CCc2ccccc2C1 | 946 |
| CCN1CCN(c2nccc(-c3cnc4nc(-c5ccc(Cl)cc5)nn4c3C)n2)CC1 | 1010 |
| COc1ccc(S(=O)(=O)N2CCCC(C(=O)NC(C)C)C2)cc1OC (configuration not stated) | 720 |
| CCOC(=O)c1ccc(N2C=C(C#N)S(=O)(=O)c3ccc(Cl)cc32)cc1 | 1020 |
| COC(=O)c1cc(S(=O)(=O)N2CCCC2C(=O)Nc2cccc(C)n2)cn1C (configuration not stated) | 773 |
| CCCN1CCN(C(=O)CCc2c(C)c(C(=O)OCC)n(C)c2C)CC1 | 641 |
| O=C1C2N=NN(Cc3nc(-c4ccc(Cl)cc4)no3)C2C(=O)N1c1ccc(F)cc1 (configuration not stated) | 1030 |
| CCN1CCCn2cc(S(=O)(=O)Nc3ccc(C)c(F)c3)cc2C1=O | 754 |
| Cc1cc(C)c(S(=O)(=O)N2CCn3c(nn(CC4CC4)c3=O)C2)cc1C | 873 |
| Cc1ccc(F)cc1NS(=O)(=O)c1cc(-c2[nH]ncc2C(=O)N2CCCC2)oc1C | 739 |
| N#Cc1ccccc1CN1CCCC(N2CCCC2)C1=O (configuration not stated) | 574 |
| CCn1c(CCNC(=O)c2ccc(OC)cc2C)nc2cccnc21 | 733 |
| CCc1ccc(S(=O)(=O)Nc2ccc(C3(C(=O)NCC4CCCO4)CC3)cc2)cc1 (configuration not stated) | 867 |
| CCc1nc(-c2cccc(-c3noc(CNS(=O)(=O)c4ccc(Cl)cc4)n3)c2)cs1 | 1130 |

From the METLIN SMRT retention time set (Domingo-Almenara et al. 2019)
